Experimental data published in PubChem BioAssay (NCI).
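1) Cells in 96-well plates. 2) Compound, 48 h, 5 concentrations. 3) Linear interpolation between surrounding doses. 4) Unreached endpoint = highest concentration. Abbreviation: GI50, concentration required for 50% inhibition of growth. TGI denotes the concentration required for complete inhibition of growth.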

Key:
Assay in all cases: NCI-60 cell line screen, 48 h
[1] = system: 786-0 renal
[2] = system: A498 renal
[3] = system: A549 NSCLC
[4] = system: ACHN renal
[5] = system: BT-549 breast
[6] = system: CAKI-1 renal
[7] = system: CCRF-CEM leukemia
[8] = system: COLO 205 colon
[9] = system: DU-145 prostate
[10] = system: EKVX NSCLC
[11] = system: HCC-2998 colon
[12] = system: HCT-116 colon
[13] = system: HCT-15 colon
[14] = system: HL-60(TB) leukemia
[15] = system: HOP-62 NSCLC
[16] = system: HOP-92 NSCLC
[17] = system: HS 578T breast
[18] = system: HT29 colon
[19] = system: IGROV1 ovarian
[20] = system: K-562 leukemia
[21] = system: KM12 colon
[22] = system: LOX IMVI melanoma
[23] = system: M14 melanoma
[24] = system: MALME-3M melanoma
[25] = system: MCF7 breast
[26] = system: MDA-MB-231 breast
[27] = system: MDA-MB-435
[28] = system: MDA-MB-468 breast
[29] = system: MOLT-4 leukemia
[30] = system: NCI-H226 lung
[31] = system: NCI-H23 lung
[32] = system: NCI-H460 lung
[33] = system: NCI-H522 lung
[34] = system: NCI/ADR-RES ovarian
[35] = system: OVCAR-3 ovarian
[36] = system: OVCAR-4 ovarian
[37] = system: OVCAR-5 ovarian
[38] = system: OVCAR-8 ovarian
[39] = system: PC-3 prostate
[40] = system: RPMI-8226 leukemia
[41] = system: RXF 393 renal
[42] = system: SF-268 CNS
[43] = system: SF-295 CNS
[44] = system: SF-539 CNS
[45] = system: SK-MEL-2 melanoma
[46] = system: SK-MEL-28 melanoma
[47] = system: SK-MEL-5 melanoma
[48] = system: SK-OV-3 ovarian
[49] = system: SN12C renal
[50] = system: SNB-19 CNS
[51] = system: SNB-75 CNS
[52] = system: SR leukemia
[53] = system: SW-620 colon
[54] = system: T-47D breast
[55] = system: TK-10 renal
[56] = system: U251 CNS
[57] = system: UACC-257 melanoma
[58] = system: UACC-62 melanoma
[59] = system: UO-31 renal

In the case of CN1CCc2c(sc3ncnc(N/N=C/c4cn(-c5ccccc5)nc4-c4ccc(Cl)cc4)c23)C1, the GI50 [1] is reported as 588 nM, the TGI [1] is reported as 18000 nM and the GI50 [2] is reported as > 56700 nM. For the same compound, the TGI [2] was > 100000 nM, the GI50 [3] was 496 nM and the TGI [3] was > 100000 nM. The GI50 [4] was 481 nM, the TGI [4] was 20400 nM and the GI50 [5] was 2890 nM. For the same compound, the TGI [5] was > 31800 nM, the GI50 [6] was 1320 nM and the TGI [6] was > 66700 nM. For the same compound, the GI50 [7] was 504 nM, the TGI [7] was > 100000 nM and the GI50 [8] was 406 nM. For the same compound, the TGI [8] was > 100000 nM, the GI50 [9] was 1410 nM and the TGI [9] was > 100000 nM. For the same compound, the GI50 [10] was 313 nM, the TGI [10] was > 42600 nM and the GI50 [11] was 500 nM. For the same compound, the TGI [11] was 34800 nM, the GI50 [12] was 115 nM and the GI50 [13] was 390 nM. The TGI [13] was > 100000 nM, the GI50 [14] was 292 nM and the TGI [14] was 1980 nM. The GI50 [15] was 724 nM, the TGI [15] was > 84300 nM and the GI50 [16] was 643 nM. The TGI [16] was 49600 nM, the GI50 [17] was 15600 nM and the TGI [17] was > 89700 nM. The GI50 [18] was 442 nM, the TGI [18] was 13900 nM and the GI50 [19] was 379 nM. The TGI [19] was 21100 nM, the GI50 [20] was 290 nM and the TGI [20] was > 100000 nM. The GI50 [21] was 496 nM, the TGI [21] was > 100000 nM and the GI50 [22] was 305 nM. For the same compound, the TGI [22] was 4120 nM, the GI50 [23] was 598 nM and the TGI [23] was > 38700 nM. For the same compound, the GI50 [24] was 999 nM, the TGI [24] was > 100000 nM and the GI50 [25] was 223 nM. It also gave a TGI [25] of 635 nM, a GI50 [26] of 468 nM and a TGI [26] of 32000 nM. For the same compound, the GI50 [27] was 1610 nM, the TGI [27] was > 100000 nM and the GI50 [28] was 208 nM. The TGI [28] was 595 nM, the GI50 [29] was 319 nM and the TGI [29] was > 100000 nM. For the same compound, the GI50 [30] was 1190 nM, the TGI [30] was > 65900 nM and the GI50 [31] was 326 nM. For the same compound, the TGI [31] was 10800 nM, the GI50 [32] was 390 nM and the TGI [32] was 30000 nM. It also gave a GI50 [33] of 323 nM, a TGI [33] of 5380 nM and a GI50 [34] of 320 nM. The TGI [34] was 1760 nM, the GI50 [35] was 242 nM and the TGI [35] was 6220 nM. The GI50 [36] was 462 nM, the TGI [36] was 69900 nM and the GI50 [37] was 419 nM. The TGI [37] was > 100000 nM, the GI50 [38] was 368 nM and the TGI [38] was > 38500 nM. The GI50 [39] was 472 nM, the TGI [39] was > 100000 nM and the GI50 [40] was 443 nM. For the same compound, the TGI [40] was > 100000 nM, the GI50 [41] was 3560 nM and the TGI [41] was 34600 nM. For the same compound, the GI50 [42] was 678 nM, the TGI [42] was > 100000 nM and the GI50 [43] was 403 nM. For the same compound, the TGI [43] was > 37700 nM, the GI50 [44] was 345 nM and the TGI [44] was 10700 nM. The GI50 [45] was 990 nM, the TGI [45] was 24400 nM and the GI50 [46] was 5560 nM. For the same compound, the TGI [46] was > 100000 nM, the GI50 [47] was 544 nM and the TGI [47] was 20500 nM. The GI50 [48] was > 36200 nM, the TGI [48] was > 76100 nM and the GI50 [49] was 340 nM. For the same compound, the TGI [49] was > 100000 nM, the GI50 [50] was 3280 nM and the TGI [50] was > 57300 nM. For the same compound, the GI50 [51] was 13800 nM, the TGI [51] was 60800 nM and the GI50 [52] was 2660 nM. For the same compound, the TGI [52] was > 100000 nM, the GI50 [53] was 387 nM and the TGI [53] was > 100000 nM. For the same compound, the GI50 [54] was 2590 nM, the TGI [54] was > 100000 nM and the GI50 [55] was 2470 nM. For the same compound, the TGI [55] was 38300 nM, the GI50 [56] was 688 nM and the TGI [56] was > 54100 nM. The GI50 [57] was 473 nM, the TGI [57] was > 100000 nM and the GI50 [58] was 787 nM. The TGI [58] was 14400 nM, the GI50 [59] was 475 nM and the TGI [59] was 25400 nM.
